Reference: patent publication US20210369698A1 (Attillaps Holdings, priority 2019, published 2021)

Test system: Demodex mites
Conditions: 10% chloroquine in water; in vitro; water control 44.8 hours
Experimental: In vitro efficacy and mite lifetimes: Relative efficacy of various formulations are evaluated with a demodex survival time experiments. FIG. 3 tabulates demodex survival time, expressed in terms of LT50 (time at which 50% of demodex mites are killed) and/or average minutes to death for various active agents.

In the case of `CCN(CC)CCCC(C)Nc1ccnc2cc(Cl)ccc12` (stereo not shown) [chloroquine, Chloroquine], the “LT50 (time at which 50% of demodex mites are killed)” value is reported as 31.6 h.
